Source: ChEMBL document CHEMBL2163333, “Novel imidazol-1-ylmethyl substituted 1,2,5,6-tetrahydropyrrolo[3,2,1-ij]quinolin-4-ones as potent and selective CYP11B1 inhibitors for the treatment of Cushing's syndrome” (J Med Chem, 2012)

Columns and labels:
[1] = target: T1, Cytochrome P450 11B2, mitochondrial (Homo sapiens, UniProt P19099); assay: Inhibition of human CYP11B2 expressed in hamster V79 MZh cells using deoxycorticosterone substrate; format: cell-based
T1 sequence (P19099 whole entry): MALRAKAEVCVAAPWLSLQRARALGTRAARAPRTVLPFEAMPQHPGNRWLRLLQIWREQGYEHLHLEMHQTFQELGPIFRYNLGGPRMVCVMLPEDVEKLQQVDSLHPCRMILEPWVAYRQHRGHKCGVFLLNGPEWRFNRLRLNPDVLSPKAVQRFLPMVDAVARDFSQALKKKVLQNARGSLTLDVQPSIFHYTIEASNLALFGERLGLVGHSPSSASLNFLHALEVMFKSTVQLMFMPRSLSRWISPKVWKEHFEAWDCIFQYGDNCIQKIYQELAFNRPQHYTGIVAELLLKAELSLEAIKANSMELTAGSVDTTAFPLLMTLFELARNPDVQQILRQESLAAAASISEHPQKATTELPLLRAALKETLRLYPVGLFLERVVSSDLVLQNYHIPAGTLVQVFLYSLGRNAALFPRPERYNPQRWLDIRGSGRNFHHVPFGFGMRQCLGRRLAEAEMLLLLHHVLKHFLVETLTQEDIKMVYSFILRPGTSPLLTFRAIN

[2] = target: T2, Cytochrome P450 11B1, mitochondrial (Homo sapiens, UniProt P15538); assay: Inhibition of human CYP11B1 expressed in hamster V79 MZh cells using deoxycorticosterone substrate; format: cell-based
T2 sequence (P15538 whole entry): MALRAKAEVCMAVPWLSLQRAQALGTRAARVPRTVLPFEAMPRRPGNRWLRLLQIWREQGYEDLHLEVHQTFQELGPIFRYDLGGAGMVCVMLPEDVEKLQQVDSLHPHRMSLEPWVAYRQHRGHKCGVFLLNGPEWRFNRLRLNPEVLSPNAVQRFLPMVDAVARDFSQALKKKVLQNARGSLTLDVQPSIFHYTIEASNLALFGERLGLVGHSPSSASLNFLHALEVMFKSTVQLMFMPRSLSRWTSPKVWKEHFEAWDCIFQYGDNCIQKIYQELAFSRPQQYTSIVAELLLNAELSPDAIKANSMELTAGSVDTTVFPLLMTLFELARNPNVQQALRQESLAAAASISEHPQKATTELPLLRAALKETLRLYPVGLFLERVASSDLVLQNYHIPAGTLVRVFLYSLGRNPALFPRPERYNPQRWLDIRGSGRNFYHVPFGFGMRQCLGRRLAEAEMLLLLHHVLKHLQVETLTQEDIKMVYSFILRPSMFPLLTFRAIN

Homo sapiens [3] = species on record: Homo sapiens; assay: Selectivity ratio of IC50 for human CYP11B2 to IC50 for human CYP11B1
[4] = target: T3, Cytochrome P450 11B1, mitochondrial (Rattus norvegicus, UniProt P15393); assay: Inhibition of rat CYP11B1 at 2 uM
T3 sequence (P15393 whole entry): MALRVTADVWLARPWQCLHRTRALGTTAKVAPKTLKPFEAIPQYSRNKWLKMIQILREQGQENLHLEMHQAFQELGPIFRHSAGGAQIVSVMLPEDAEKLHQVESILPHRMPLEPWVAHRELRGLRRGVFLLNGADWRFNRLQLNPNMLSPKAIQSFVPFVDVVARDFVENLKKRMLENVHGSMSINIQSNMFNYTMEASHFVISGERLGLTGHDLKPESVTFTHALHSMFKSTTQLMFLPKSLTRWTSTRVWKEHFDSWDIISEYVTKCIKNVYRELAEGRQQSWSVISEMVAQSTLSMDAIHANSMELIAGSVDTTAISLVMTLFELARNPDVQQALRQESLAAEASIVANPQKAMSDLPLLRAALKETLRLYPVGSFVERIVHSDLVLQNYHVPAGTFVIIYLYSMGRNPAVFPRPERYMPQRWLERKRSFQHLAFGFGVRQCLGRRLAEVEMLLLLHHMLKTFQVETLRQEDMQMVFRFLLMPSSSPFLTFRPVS

[5] = target: T4, Steroid 17-alpha-hydroxylase/17,20 lyase (Homo sapiens, UniProt P05093); assay: Inhibition of human CYP17 expressed in Escherichia coli using progesterone substrate
T4 sequence (P05093 whole entry): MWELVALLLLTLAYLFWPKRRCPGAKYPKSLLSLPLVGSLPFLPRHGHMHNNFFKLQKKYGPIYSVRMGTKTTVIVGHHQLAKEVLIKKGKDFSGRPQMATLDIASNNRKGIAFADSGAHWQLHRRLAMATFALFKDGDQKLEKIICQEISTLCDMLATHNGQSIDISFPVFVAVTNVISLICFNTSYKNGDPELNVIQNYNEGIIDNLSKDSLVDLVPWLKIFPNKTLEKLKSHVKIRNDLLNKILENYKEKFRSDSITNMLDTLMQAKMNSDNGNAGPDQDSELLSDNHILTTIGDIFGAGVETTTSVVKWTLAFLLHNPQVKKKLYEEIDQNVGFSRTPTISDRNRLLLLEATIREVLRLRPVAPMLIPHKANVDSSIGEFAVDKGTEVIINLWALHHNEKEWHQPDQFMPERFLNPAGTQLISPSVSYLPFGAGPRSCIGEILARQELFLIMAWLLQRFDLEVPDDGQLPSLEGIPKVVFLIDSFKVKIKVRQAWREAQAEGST

Aromatase = target: T5, Aromatase (Homo sapiens, UniProt P11511); assay: Inhibition of human placental CYP19 using androstenedione substrate
T5 sequence (P11511 whole entry): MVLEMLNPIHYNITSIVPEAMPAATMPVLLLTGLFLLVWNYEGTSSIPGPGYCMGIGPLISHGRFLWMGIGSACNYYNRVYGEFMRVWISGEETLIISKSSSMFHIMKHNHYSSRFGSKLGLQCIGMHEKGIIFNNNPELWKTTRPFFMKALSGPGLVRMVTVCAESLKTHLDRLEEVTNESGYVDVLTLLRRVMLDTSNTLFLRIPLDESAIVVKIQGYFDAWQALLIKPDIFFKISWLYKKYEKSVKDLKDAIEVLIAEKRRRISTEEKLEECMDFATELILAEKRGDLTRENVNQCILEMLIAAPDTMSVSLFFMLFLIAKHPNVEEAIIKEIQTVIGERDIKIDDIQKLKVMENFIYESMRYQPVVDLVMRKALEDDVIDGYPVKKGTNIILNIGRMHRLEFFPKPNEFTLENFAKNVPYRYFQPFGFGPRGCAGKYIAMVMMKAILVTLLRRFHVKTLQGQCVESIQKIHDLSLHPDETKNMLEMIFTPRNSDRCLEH

Homo sapiens [6] = species on record: Homo sapiens; assay: Selectivity ratio of IC50 for human CYP17 to IC50 for human CYP11B1
Homo sapiens [7] = species on record: Homo sapiens; assay: Selectivity ratio of IC50 for human placental CYP19 to IC50 for human CYP11B1

Row | IC50 [1] | IC50 [2] | Ratio IC50 (Homo sapiens [3]) | inhibition at 2 µM [4] | IC50 [5] | IC50 (Aromatase) | Ratio IC50 (Homo sapiens [6]) | Ratio IC50 (Homo sapiens [7]) | Structure (SMILES)
1 | 47 nM | 20 nM | 2.4 | – | – | – | – | – | O=C1CCc2cc(C(c3ccco3)n3ccnc3)cc3c2N1CC3 (configuration not stated)
2 | 24 nM | 2.2 nM | – | 91% | 2880 nM | 228 nM | – | – | O=C1CCc2cc(C(C3CC3)n3ccnc3)cc3c2N1CC3 (racemic)
3 | 18 nM | 13 nM | 1.4 | – | – | – | – | – | O=C1CCc2cc(C(c3cccs3)n3ccnc3)cc3c2N1CC3 (configuration not stated)
4 | 308 nM | 70 nM | 4.4 | – | – | – | – | – | N#Cc1ccc(C(c2cc3c4c(c2)CCN4C(=O)CC3)n2ccnc2)cc1 (configuration not stated)
5 | 3.8 nM | 1.4 nM | 2.7 | – | 1550 nM | > 500 nM | 1110 | > 357 | CC(C)C(c1cc2c3c(c1)CCN3C(=O)CC2)n1ccnc1 (configuration not stated)
6 | 18 nM | 29 nM | 0.6 | – | – | – | – | – | O=C1CCc2cc(C(c3cccc(F)c3)n3ccnc3)cc3c2N1CC3 (configuration not stated)
7 | 88 nM | 110 nM | 0.8 | – | – | – | – | – | COc1cccc(C(c2cc3c4c(c2)CCN4C(=O)CC3)n2ccnc2)c1 (configuration not stated)
8 | 5.8 nM | 6.5 nM | 0.9 | – | – | – | – | – | CCC(c1cc2c3c(c1)CCN3C(=O)CC2)n1ccnc1 (configuration not stated)
9 | – | 10.3 nM | – | – | – | – | – | – | O=C1CCc2cc(C(C3CC3)n3ccnc3)cc3c2N1CC3 (stereo in doubt; (+)-4)
10 | 33 nM | 50 nM | 0.7 | – | – | – | – | – | O=C1CCc2cc(C(c3ccccc3)n3ccnc3)cc3c2N1CC3 (configuration not stated)
11 | 100 nM | 19 nM | 5.3 | – | > 5000 nM | 17 nM | > 260 | 0.9 | C=C(c1cc2c3c(c1)CCN3C(=O)CC2)n1ccnc1
12 | – | 1.5 nM | – | – | – | – | – | – | O=C1CCc2cc(C(C3CC3)n3ccnc3)cc3c2N1CC3 (single isomer, unassigned; (-))
13 | 19 nM | 40 nM | 0.5 | – | – | – | – | – | O=C1CCc2cc(C(c3ccccc3F)n3ccnc3)cc3c2N1CC3 (configuration not stated)
14 | 104 nM | 40 nM | 2.6 | – | > 5000 nM | 43 nM | > 125 | 1.1 | COc1ccc(C(c2cc3c4c(c2)CCN4C(=O)CC3)n2ccnc2)cc1 (configuration not stated)
15 | 4.2 nM | 3.4 nM | 1.2 | – | – | – | – | – | O=C1CCc2cc(C(C3CCC3)n3ccnc3)cc3c2N1CC3 (configuration not stated)
16 | 851 nM | 438 nM | 1.9 | – | – | – | – | – | CC(c1cc2c3c(c1)CCN3C(=O)CC2)(n1ccnc1)n1ccnc1
17 | 29 nM | 27 nM | 1.1 | – | – | – | – | – | O=C1CCc2cc(C(c3ccc(F)cc3)n3ccnc3)cc3c2N1CC3 (configuration not stated)
18 | 304 nM | 144 nM | 2.1 | – | – | – | – | – | N#Cc1cccc(C(c2cc3c4c(c2)CCN4C(=O)CC3)n2ccnc2)c1 (configuration not stated)
19 | 15 nM | 17 nM | 0.9 | – | – | – | – | – | CC(c1cc2c3c(c1)CCN3C(=O)CC2)n1ccnc1 (configuration not stated)
